Publication PMC3202988 (Nature chemical biology, 2011)

Molecular target: T1, OGA (O-GlcNAcase) (Homo sapiens, UniProt O60502)
T1 sequence (O60502 1-916): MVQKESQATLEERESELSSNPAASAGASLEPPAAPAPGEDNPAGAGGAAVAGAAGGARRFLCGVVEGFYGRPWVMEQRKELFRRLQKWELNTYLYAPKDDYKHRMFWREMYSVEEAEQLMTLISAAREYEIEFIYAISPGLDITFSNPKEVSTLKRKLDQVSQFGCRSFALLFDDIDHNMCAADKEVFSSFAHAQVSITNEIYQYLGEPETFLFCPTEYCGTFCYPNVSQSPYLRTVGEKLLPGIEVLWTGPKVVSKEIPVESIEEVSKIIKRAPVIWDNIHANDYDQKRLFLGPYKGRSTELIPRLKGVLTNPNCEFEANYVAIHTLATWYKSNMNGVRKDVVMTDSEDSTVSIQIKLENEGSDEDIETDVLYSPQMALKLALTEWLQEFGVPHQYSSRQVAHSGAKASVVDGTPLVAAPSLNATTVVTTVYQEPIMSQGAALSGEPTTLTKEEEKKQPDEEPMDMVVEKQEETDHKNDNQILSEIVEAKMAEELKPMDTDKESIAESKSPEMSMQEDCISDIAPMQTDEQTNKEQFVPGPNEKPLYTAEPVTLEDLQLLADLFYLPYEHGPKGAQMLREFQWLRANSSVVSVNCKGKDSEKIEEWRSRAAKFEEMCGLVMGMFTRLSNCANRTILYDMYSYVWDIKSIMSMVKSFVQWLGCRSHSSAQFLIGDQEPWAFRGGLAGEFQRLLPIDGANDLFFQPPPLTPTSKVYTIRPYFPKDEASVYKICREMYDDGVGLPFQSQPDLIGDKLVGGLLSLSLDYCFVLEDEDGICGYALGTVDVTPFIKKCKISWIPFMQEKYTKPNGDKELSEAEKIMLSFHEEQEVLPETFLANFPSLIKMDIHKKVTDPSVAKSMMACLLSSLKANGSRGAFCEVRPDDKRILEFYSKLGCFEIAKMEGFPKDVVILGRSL
Test: Michaelis-Menten hydrolysis kinetics, absorbance at […] nm
Type: biochemical

## COc1ccc(O[C@@H]2O[C@H](CO)[C@@H](O)[C@H](O)[C@H]2NC(C)=O)cc1 [compound 6, para-methoxyphenyl 2-acetamido-2-deoxy-β-D-glucopyranoside]
  Michaelis-Menten hydrolysis kinetics, absorbance at 296 nm: 40.7 μmol s^−1 mg^−1 M^−1

## COc1ccc(O[C@@H]2S[C@H](CO)[C@@H](O)[C@H](O)[C@H]2NC(C)=O)cc1 [compound 7, para-methoxyphenyl 2-acetamido-2-deoxy-5-thio-β-D-glucopyranoside]
  Michaelis-Menten hydrolysis kinetics, absorbance at 296 nm: 8.1 μmol s^−1 mg^−1 M^−1
